Data published in publication PMC8752738, “A propolis-derived small molecule ameliorates metabolic syndrome in obese mice by targeting the CREB/CRTC2 transcriptional complex” (Nature Communications, 2022).
“And” between values parts separate entries of the source, which are not always exact repeats. Identical values can stand only once. Like-named read-outs stand apart in the source and are kept apart here.

Legend:
CREB / CRTC1 interaction = target: T1, CREB / CRTC1 interaction (Homo sapiens, UniProt P16220); experiment: Co-immunoprecipitation of GFP-CRTC1 by MYC-CREB, HEK293T; assay type: cell-based; settings: overexpression HEK293T cells, APC 10 μM
T1 construct: expressed in transfected cells; host or cells: HEK293T
Procedure: 1 Supplementary Figure 2.
2 a) Immunoblot of HA-P300 recovered from HEK293T cell lysate using GST-CREB beads. APC
3 (10 μM) was incubated with cells for 1-h before FKS (10 nM) stimulation and was included in the
4 following pull-down mixtures (n=3). One of two independent experiments presented here.
5 b) Immunoblot for recovered GFP-CRTC1 or (c) GFP-CRTC3 immunoprecipitated by MYC-CREB
6 from overexpression HEK293T cell line. APC (10 μM) was incubated with cells for 1-h before FKS
7 (10 nM) stimulation and was included in the following pull-down mixtures. One of two independent
8 experiments presented here.
9 d) SPR sonogram traces of APC binding with HIS-CREB proteins immobilized to NTA-chip. The
10 concentration series of APC was as indicated.
11 e) SPR sonogram traces of APC flowing through HIS-CRTC2-S171A proteins immobilized on
12 NTA-chip. The concentration of APC was as indicated.
13 f) The luciferase enzymatic activity of HEK293T incubated with APC. Cells over-expressed
14 luciferase CRE-Luc reporter and were stimulated by FSK (10 nM) for 5-h before lysis, which was
15 then incubated with APC (concentration indicated) for 30 min before luciferase activity determination
16 (n=3 per treatment). Data are represented as mean ± SEM. *, p < 0.05; **, p < 0.01; p values were
17 determined by one-way ANOVA followed Dunnett’s multiple comparisons test. […]

primary hepatocytes = experiment: MTT assay, primary hepatocytes; assay type: cell-based, mouse; settings: for Relative MTT absortance-48H, mean: n=5 (0 μM = 100); for Relative MTT absortance-48H: Supp. fig.3b, individual replicates
Procedure: Primary hepatocytes were exposed to APC at indicated concentrations for 48-h, then co-incubated with methyl thiazolyl tetrazolium (0.5 mg/mL in PBS, Sigma) solution for 5-h. After removing the solution, the purple crystals were dissolved using DMSO, and the absorbance was measured at 550 nm.

[1] = Tissue distribution assay; assay type: in vivo, mouse; settings: for concentration at 8 h / concentration at 4 h / concentration at 2 h: male, C57/BL6, mouse, po, 20 mg/kg
Procedure: Male C57/BL6 mice (18–20 g, n = 3 in each group) were randomly sorted into treatment groups. Being fasted for 12-h, mice were treated with oral gavage of the compound APC (20 mg/kg, in DMSO/0.5% HMPC, 5/95, v/v). After 2, 4, and 8-h of administration, the animals were sacrificed, respectively, the indicated tissues, including plasma, liver, kidney, muscle, brain, spleen, pancreas, white and brown fat, were collected and preserved at −80 °C. The APC content in samples was analyzed with a liquid chromatography-mass spectrometry/mass spectrometry (LC–MS/MS) system and normalized by protein content.

T1 sequence (P16220 whole entry): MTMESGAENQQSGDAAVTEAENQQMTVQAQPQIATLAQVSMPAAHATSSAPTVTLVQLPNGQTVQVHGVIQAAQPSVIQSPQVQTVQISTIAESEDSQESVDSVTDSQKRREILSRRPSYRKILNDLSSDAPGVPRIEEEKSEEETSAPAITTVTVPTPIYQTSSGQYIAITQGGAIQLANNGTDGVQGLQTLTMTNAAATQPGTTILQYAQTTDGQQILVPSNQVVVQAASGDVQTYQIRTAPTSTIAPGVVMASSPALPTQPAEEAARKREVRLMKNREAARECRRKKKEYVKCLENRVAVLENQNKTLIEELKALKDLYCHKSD

CC(C)=CCc1cc(C=CC(=O)O)cc(CC=C(C)C)c1O [APC, 3,5-diprenyl-4-hydroxycinnamic acid]
interaction of CREB and CRTC1 (CREB / CRTC1 interaction): attenuated
Relative MTT absortance-48H, mean (primary hepatocytes; APC 1 μM): 102
Relative MTT absortance-48H, mean (primary hepatocytes; APC 5 μM): 103.2
Relative MTT absortance-48H, mean (primary hepatocytes; APC 25 μM): 101.9
Relative MTT absortance-48H, mean (primary hepatocytes; APC 100 μM): 105.7
hepatocyte viability (primary hepatocytes; APC up to 100 μM, 48-h): did not impair hepatocyte viability
Relative MTT absortance-48H (primary hepatocytes; APC 1 uM): 101.3514 and 105.1051 and 97.5976 and 102.8529 (2×)
Relative MTT absortance-48H (primary hepatocytes; APC 5 uM): 99.8499 and 98.3484 and 103.6036 and 105.1051 and 108.8589
Relative MTT absortance-48H (primary hepatocytes; APC 25 uM): 96.6066 and 104.3544 and 100.6006 and 99.6096 and 108.1081
Relative MTT absortance-48H (primary hepatocytes; APC 100 uM): 107.3574 and 101.1111 and 106.6066 and 109.6096 and 103.6036
content of APC in the liver compared with other tissues ([1]; 2–8 h after one oral dose 20 mg/kg): highest
APC content in tissue ([1]; Brain, 2H, oral, individual mice, * below the detection line, 2 h after oral dose): 0* ng/g (2×) and 16.430 ng/g
APC content in tissue ([1]; Brain, 4H, oral, individual mice, * below the detection line): 0* ng/g
APC content in tissue ([1]; Brain, 4H, oral, individual mice, * below the detection line, 4 h after oral dose): 1.550 ng/g and 4.810 ng/g
APC content in tissue ([1]; Brain, 8H, oral, individual mice, * below the detection line): 0* ng/g
APC content in tissue ([1]; BrownFat, 2H, oral, individual mice, 2 h after oral dose): 9.800 ng/g and 11.690 ng/g
APC content in tissue ([1]; BrownFat, 4H, oral, individual mice): 9.800 ng/g
APC content in tissue ([1]; BrownFat, 4H, oral, individual mice, 4 h after oral dose): 14.240 ng/g and 144.870 ng/g
APC content in tissue ([1]; BrownFat, 8H, oral, individual mice): 1.740 ng/g and 5.480 ng/g and 3.880 ng/g
APC content in tissue ([1]; Kidney, 2H, oral, individual mice, 2 h after oral dose): 23.340 ng/g and 9.890 ng/g and 11.250 ng/g
APC content in tissue ([1]; Kidney, 4H, oral, individual mice): 9.550 ng/g
APC content in tissue ([1]; Kidney, 4H, oral, individual mice, 4 h after oral dose): 19.740 ng/g and 19.810 ng/g
APC content in tissue ([1]; Kidney, 8H, oral, individual mice): 2.260 ng/g and 4.200 ng/g and 7.700 ng/g
APC content in tissue ([1]; Live (liver), 2H, oral, individual mice, 2 h after oral dose): 703.950 ng/g and 577.440 ng/g
APC content in tissue ([1]; Live (liver), 4H, oral, individual mice): 815.560 ng/g
APC content in tissue ([1]; Live (liver), 4H, oral, individual mice, 4 h after oral dose): 1205.720 ng/g
APC content in tissue ([1]; Live (liver), 8H, oral, individual mice): 287.680 ng/g and 320.280 ng/g
APC content in tissue ([1]; Muscle, 2H, oral, individual mice, 2 h after oral dose): 2.680 ng/g and 4.690 ng/g
APC content in tissue ([1]; Muscle, 4H, oral, individual mice): 13.390 ng/g
APC content in tissue ([1]; Muscle, 4H, oral, individual mice, 4 h after oral dose): 7.190 ng/g
APC content in tissue ([1]; Muscle, 8H, oral, individual mice): 0.000 ng/g and 1.740 ng/g and 1.650 ng/g
APC content in tissue ([1]; Pancreas, 2H, oral, individual mice, 2 h after oral dose): 18.050 ng/g and 11.070 ng/g and 26.740 ng/g
APC content in tissue ([1]; Pancreas, 4H, oral, individual mice): 33.580 ng/g
APC content in tissue ([1]; Pancreas, 4H, oral, individual mice, 4 h after oral dose): 20.040 ng/g and 8.730 ng/g
APC content in tissue ([1]; Pancreas, 8H, oral, individual mice, * below the detection line): 10.890 ng/g and 0* ng/g (2×)
APC content in tissue ([1]; Spleen, 2H, oral, individual mice, 2 h after oral dose): 10.360 ng/g and 16.550 ng/g
APC content in tissue ([1]; Spleen, 4H, oral, individual mice): 12.280 ng/g
APC content in tissue ([1]; Spleen, 4H, oral, individual mice, 4 h after oral dose): 22.450 ng/g
APC content in tissue ([1]; Spleen, 8H, oral, individual mice): 0.000 ng/g and 12.270 ng/g and 10.910 ng/g
APC content in tissue ([1]; WhiteFat, 2H, oral, individual mice, 2 h after oral dose): 10.520 ng/g and 12.290 ng/g
APC content in tissue ([1]; WhiteFat, 4H, oral, individual mice): 42.520 ng/g
APC content in tissue ([1]; WhiteFat, 4H, oral, individual mice, 4 h after oral dose): 32.220 ng/g
APC content in tissue ([1]; WhiteFat, 8H, oral, individual mice): 3.140 ng/g and 8.490 ng/g and 14.550 ng/g
APC-PO-heart-plasma ([1]; heart plasma, PO, 2H, individual mice): 28.92 ng/mL and 27.48 ng/mL
APC-PO-heart-plasma ([1]; heart plasma, PO, 4H, individual mice): 64.03 ng/mL and 39.57 ng/mL
APC-PO-heart-plasma ([1]; heart plasma, PO, 8H, individual mice): 7.56 ng/mL and 19.01 ng/mL and 14.9 ng/mL
concentration at 8 h ([1]; brain, Brain, 8H, oral, individual mice, * below the detection line, read-out: APC content in tissue): 0 ng/g
concentration at 4 h ([1]; brain, brain, 4 h after oral, Figure 5l, Y, read-out: average APC content 4 h after oral): 3.18 ng/g
concentration at 4 h ([1]; brain, brain, 4 h after oral, Figure 5l, size of bubble, read-out: average APC content 4 h after oral): 3.18 ng/g
concentration at 4 h ([1]; brown fat (BF), BF, 4 h after oral, Figure 5l, size of bubble, read-out: average APC content 4 h after oral): 56.3 ng/g
concentration at 4 h ([1]; brown fat, BF, 4 h after oral, Figure 5l, Y, read-out: average APC content 4 h after oral): 56.3 ng/g
concentration at 2 h ([1]; brown fat, BrownFat, 2H, oral, individual mice, read-out: APC content in tissue): 11.1 ng/g
concentration at 2 h ([1]; heart plasma, heart plasma, PO, 2H, individual mice, read-out: APC-PO-heart-plasma): 32.1 ng/mL
concentration at 4 h ([1]; heart plasma, heart plasma, PO, 4H, average, read-out: avarage APC, APC-PO-heart-plasma): 48.5 ng/mL
concentration at 4 h ([1]; heart plasma, heart plasma, PO, 4H, individual mice, read-out: APC-PO-heart-plasma): 41.8 ng/mL
concentration at 4 h ([1]; kidney, kidney, 4 h after oral, Figure 5l, Y, read-out: average APC content 4 h after oral): 16.4 ng/g
concentration at 4 h ([1]; kidney, kidney, 4 h after oral, Figure 5l, size of bubble, read-out: average APC content 4 h after oral): 16.4 ng/g
concentration at 4 h ([1]; liver, LIVER, 4 h after oral, Figure 5l, Y, read-out: average APC content 4 h after oral): 917 ng/g
concentration at 4 h ([1]; liver, LIVER, 4 h after oral, Figure 5l, size of bubble, read-out: average APC content 4 h after oral): 917 ng/g
concentration at 2 h ([1]; liver, Live (liver), 2H, oral, individual mice, read-out: APC content in tissue): 756 ng/g
concentration at 4 h ([1]; liver, Live (liver), 4H, oral, individual mice, read-out: APC content in tissue): 729 ng/g
concentration at 8 h ([1]; liver, Live (liver), 8H, oral, individual mice, read-out: APC content in tissue): 178 ng/g
concentration at 2 h ([1]; liver, avarage APC, Live (liver), 2H, oral, average, heading: avarage APC): 679 ng/g
concentration at 4 h ([1]; liver, avarage APC, Live (liver), 4H, oral, average, heading: avarage APC): 917 ng/g
concentration at 2 h ([1]; muscle, Muscle, 2H, oral, individual mice, read-out: APC content in tissue): 3.77 ng/g
concentration at 4 h ([1]; muscle, Muscle, 4H, oral, individual mice, read-out: APC content in tissue): 6.73 ng/g
concentration at 4 h ([1]; muscle, Muscle, 4 h after oral, Figure 5l, Y, read-out: average APC content 4 h after oral): 9.1 ng/g
concentration at 4 h ([1]; muscle, Muscle, 4 h after oral, Figure 5l, size of bubble, read-out: average APC content 4 h after oral): 9.1 ng/g
concentration at 4 h ([1]; pancreas, panc, 4 h after oral, Figure 5l, Y, read-out: average APC content 4 h after oral): 20.8 ng/g
concentration at 4 h ([1]; pancreas, panc, 4 h after oral, Figure 5l, size of bubble, read-out: average APC content 4 h after oral): 21.2 ng/g
concentration at 4 h ([1]; portal vein plasma, po-portal vein plasma, 4 h after oral, Figure 5l, Y, read-out: average APC content 4 h after oral): 48.5 ng/g
concentration at 4 h ([1]; portal vein plasma, po-portal vein plasma, 4 h after oral, Figure 5l, size of bubble, read-out: average APC content 4 h after oral): 48.5 ng/g
concentration at 2 h ([1]; spleen, Spleen, 2H, oral, individual mice, read-out: APC content in tissue): 15.6 ng/g
concentration at 4 h ([1]; spleen, Spleen, 4H, oral, individual mice, read-out: APC content in tissue): 13.8 ng/g
concentration at 4 h ([1]; spleen, spleen, 4 h after oral, Figure 5l, Y, read-out: average APC content 4 h after oral): 16.2 ng/g
concentration at 4 h ([1]; spleen, spleen, 4 h after oral, Figure 5l, size of bubble, read-out: average APC content 4 h after oral): 16.2 ng/g
concentration at 4 h ([1]; white fat, WF, 4 h after oral, Figure 5l, Y, read-out: average APC content 4 h after oral): 32.7 ng/g
concentration at 4 h ([1]; white fat, WF, 4 h after oral, Figure 5l, size of bubble, read-out: average APC content 4 h after oral): 32.7 ng/g
concentration at 2 h ([1]; white fat, WhiteFat, 2H, oral, individual mice, read-out: APC content in tissue): 18.5 ng/g
concentration at 4 h ([1]; white fat, WhiteFat, 4H, oral, individual mice, read-out: APC content in tissue): 23.2 ng/g
